From PubChem BioAssay (NCI)
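48-hour exposure; five concentrations; linearly interpolated endpoints. TGI: total growth inhibition.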

Assays:
Experiment in all cases: inhibition of tumour cell growth, NCI panel, 48 h
DU-145 prostate = tested on: DU-145 prostate
PC-3 prostate = tested on: PC-3 prostate
MALME-3M melanoma = tested on: MALME-3M melanoma
SF-295 CNS = tested on: SF-295 CNS
MCF7 breast = tested on: MCF7 breast
RXF 393 renal = tested on: RXF 393 renal
IGROV1 ovarian = tested on: IGROV1 ovarian
CCRF-CEM leukemia = tested on: CCRF-CEM leukemia
UACC-257 melanoma = tested on: UACC-257 melanoma
OVCAR-5 ovarian = tested on: OVCAR-5 ovarian
EKVX NSCLC = tested on: EKVX NSCLC

Structure (SMILES) | TGI (DU-145 prostate) [µM] | TGI (PC-3 prostate) [µM] | TGI (MALME-3M melanoma) [µM] | TGI (SF-295 CNS) [µM] | TGI (MCF7 breast) [µM] | TGI (RXF 393 renal) [µM] | TGI (IGROV1 ovarian) [µM] | TGI (CCRF-CEM leukemia) [µM] | TGI (UACC-257 melanoma) [µM] | TGI (OVCAR-5 ovarian) [µM] | TGI (EKVX NSCLC) [µM]
COC1=CC(=O)C(O)=C(C[C@@]2(C)[C@@H]3CCC[C@H](COC(=O)CCCCCNC(=O)OC(C)(C)C)[C@@]3(C)CC[C@@H]2C)C1=O | > 10 | > 10 | > 10 | > 10 | > 10 | > 10 | > 10 | 5.29 | > 10 | > 10 | > 10
O=[N+]([O-])CC(SCc1ccccc1)c1ccc2c(c1)OCO2 (stereo not drawn) | 30 | 33.1 | 30.1 | 23.1 | 9.73 | 3.63 | 12.7 | 8.74 | 16 | 30.2 | 39.5
CCN1/C(=C/c2ccc3ccccc3[n+]2CC)C=Cc2ccccc21 | 15.7 | 4.58 | 6.89 | 10.5 | 13.1 | 12.8 | 16.4 | 6.81 | 7.22 | 24.4 | 16.7
C[n+]1c2ccccc2c(CNC(CCC(N)=O)C(=O)O)c2ccccc21 (stereo not drawn) | 11.4 | 10.8 | 10.6 | 16 | 7.73 | 6.18 | 13.4 | 3.29 | 12.9 | 18 | 12.9
C=CCN1C(=O)/C(=C/c2ccc(C)cc2)N=C1SC/C=C/C | > 100 | > 100 | 93.4 | > 100 | > 100 | 46.8 | > 100 | > 100 | > 100 | > 100 | > 100
COC(=O)[C@H]1[C@H](C(=O)OC)[C@@H](C)c2c(ccc3c2[nH]c2ccccc23)[C@@H]1C | > 100 | > 100 | > 100 | > 100 | > 100 | 82.9 | > 100 | > 100 | 66.3 | > 100 | > 100
FC(F)(F)c1ccc2c(c1)nc(Cc1ccccc1)n2C[C@@H]1CCCN2CCCCC12 (stereo partly drawn) | 29.3 | 28.5 | 31.1 | 29.6 | 28.6 | 23 | 28.9 | > 54.8 | 28.9 | 31.7 | 28.9
Cc1cc(C)c2c(n1)S(=O)(=O)N(CCCN1CCN(c3cccc(C(F)(F)F)c3)CC1)/C(=C(\O)c1ccccc1)C2=O | > 100 | > 100 | > 100 | 19.7 | 56.7 | 20.9 | 20.5 | > 100 | 32.4 | 39 | 37.6
COC(=O)c1ccc2n1C1CC3CC(CC2C3)C1 | > 100 | > 100 | > 100 | > 100 | > 100 | 96.6 | > 100 | > 100 | > 100 | > 100 | > 100
COC(=O)NCCc1[nH]nc2c1C(=O)C=C(OC)C2=O | > 100 | 95.8 | 28.8 | 32.2 | 48.1 | 31.4 | 34.9 | 45.8 | 28.3 | 37.8 | 44.5
O=C1CN(c2ccc(Cl)cc2)C(=O)CN1CCN1CC(=O)N(c2ccc(Cl)cc2)CC1=O | > 100 | > 100 | > 100 | > 100 | > 100 | > 100 | > 100 | > 100 | > 100 | > 100 | > 100
NC1CC2C3CCC2C1C3=O (stereo not drawn) | > 100 | > 100 | > 100 | > 100 | > 100 | > 100 | > 100 | > 100 | > 100 | > 100 | > 100
N#CC1C(=O)Nc2sc(C(=O)c3ccc(Br)cc3)c(N)c2C12CCCCC2 (stereo not drawn) | > 100 | 57.1 | 84.2 | > 100 | > 100 | 31.8 | > 100 | 80.3 | > 100 | > 100 | > 100
CC1=C(C(=O)OCCO[N+](=O)[O-])C(c2ccccc2C(F)(F)F)C(C(=O)OC(C)C)=C(C)N1 (stereo not drawn) | > 100 | 34.5 | 58.1 | 26.9 | 75.1 | 31.4 | 42.8 | > 100 | 25.4 | 37.3 | 97.9
C=C1CC/C=C(/C(=O)O)CC[C@H]2[C@@H]1CC2(C)C | > 100 | > 100 | > 100 | > 100 | > 100 | > 100 | > 100 | > 100 | > 100 | > 100 | > 100
COC(=O)C1OC(O[C@H]2CC[C@]3(C)[C@H]4CC=C5[C@@H]6CC(C)(C)CC[C@]6(C(=O)OC)[C@H](O)C[C@@]5(C)[C@]4(C)CC[C@H]3C2(C)C)C(O)C(O)C1O (stereo partly drawn) | 21.6 | 19.8 | 25.4 | 23.1 | 23.5 | 18.1 | 24.8 | 21.4 | 29.1 | 26 | 21.4
COC1(OC)N=C(N)C2(C#N)C(C)CC(=O)N(N(C)C)C12C#N (stereo not drawn) | > 100 | > 100 | > 100 | > 100 | > 100 | > 100 | > 100 | > 100 | > 100 | > 100 | > 100
O=[N+]([O-])c1ccc(Cl)cc1C1ON=C(c2ccccc2)N1C12CC3CC(CC(C3)C1)C2 (stereo not drawn) | > 100 | > 100 | > 100 | > 100 | > 100 | > 100 | > 100 | > 100 | > 100 | > 100 | > 100
O=C1Oc2ccccc2C(=O)/C1=C/N1C(=O)/C(=C/c2ccc([N+](=O)[O-])cc2)SC1=S | > 100 | 61.7 | > 100 | 68 | > 100 | 79.3 | > 100 | > 100 | 90.7 | > 100 | > 100
Oc1cc(Cl)cc2cc(Br)cnc12 | > 100 | > 100 | 21 | > 45.4 | > 29.9 | 19.2 | > 94.1 | 9.51 | > 23.9 | > 100 | > 64.2
COC(=O)C1=NN2c3ccccc3C(=O)OCCC2C1 (stereo not drawn) | > 100 | > 100 | > 100 | > 100 | > 100 | > 100 | > 100 | > 100 | > 100 | > 100 | > 100
CCOC(=O)CCC(C(=O)OCC)n1nc2ccc(Nc3c(C)[n+]([O-])c4cc(Cl)ccc4[n+]3[O-])cc2n1 (stereo not drawn) | > 100 | > 100 | > 100 | > 100 | > 100 | > 100 | > 100 | > 100 | > 100 | > 100 | > 100
COc1nn(Cc2ccccc2F)c2ccc([N+](=O)[O-])cc12 | > 100 | > 100 | > 100 | > 100 | > 100 | > 83.6 | > 100 | > 100 | > 100 | > 100 | > 100
Clc1ccc(OCc2nnc3sc(-c4ccc(-c5ccc(Cl)cc5Cl)o4)nn23)c(Cl)c1 | 66.8 | 33.1 | 39.4 | 33.6 | > 100 | 30.2 | 35.2 | 68.2 | 38.2 | 49.1 | 34.5
CC(C)(C)NC(NC(C)(C)C)=C(C(Cl)=C(Cl)Cl)[N+](=O)[O-] | > 100 | > 100 | > 100 | > 100 | > 100 | > 100 | > 100 | > 100 | > 100 | > 100 | > 100
N#Cc1c(=O)c2cc([N+](=O)[O-])ccc2n2c1[nH]c1ccccc12 | > 100 | > 100 | 35.4 | > 52.2 | > 86.5 | > 100 | > 83.7 | > 100 | > 72 | > 100 | > 100
O=c1c2cc(Br)ccc2oc2nc3n(c(=O)c12)CCCS3 | > 100 | > 100 | > 100 | > 100 | > 100 | > 100 | > 100 | > 100 | > 100 | > 100 | > 100
CCC(=O)OCc1ccc2oc(=O)c(C(=O)Oc3cncc(Cl)c3)cc2c1 | > 100 | > 100 | > 100 | > 100 | > 100 | > 100 | > 100 | 24.8 | > 100 | > 100 | > 100
Cc1ccc(C(=O)CC(Cl)=C(Cl)Cl)cc1 | > 100 | > 100 | > 100 | > 100 | > 100 | > 100 | > 100 | 52.1 | > 100 | > 100 | –
